Experimental data: the supplement of paper PMC7661543
± gives the standard deviation of the averaged measurements.

Columns and labels:
Test in all cases: relative cell number vs DMSO control (72 h) (% of DMSO); higher = less growth inhibition (more cells)
Conditions in all cases: sgRNA knockout: sgNT
ZR-75-1 = system: ZR-75-1
Description: (§1)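 QMAP-Seq: a pool of 5 breast cancer cell lines (ZR-75-1, SKBR3, HCC-38, MDA-MB-231, BT-20), each carrying 12 doxycycline-inducible Cas9 sgRNA perturbations (11 knockouts plus non-targeting sgNT), was treated with compounds for 72 h at four 10-fold doses (10 nM-10 uM or 1 nM-1 uM range). Barcodes were amplified and sequenced, and cell number was interpolated from 293T spike-in standard curves. The result is expressed as % of the median of DMSO wells. Two biological replicates.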

HCC-38 = system: HCC-38
Description: as §1

BT-20 = system: BT-20
Description: as §1

SKBR3 = system: SKBR3
Description: as §1

MDA-MB-231 = system: MDA-MB-231
Description: as §1

Row | SMILES | relative cell number (ZR-75-1; 10 nM) | relative cell number (ZR-75-1; 100 nM) | relative cell number (ZR-75-1; 1000 nM) | relative cell number (ZR-75-1; 10000 nM) | relative cell number (HCC-38; 10 nM) | relative cell number (HCC-38; 100 nM) | relative cell number (HCC-38; 1000 nM) | relative cell number (HCC-38; 10000 nM) | relative cell number (BT-20; 10 nM) | relative cell number (BT-20; 100 nM) | relative cell number (BT-20; 1000 nM) | relative cell number (BT-20; 10000 nM) | relative cell number (SKBR3; 10 nM) | relative cell number (SKBR3; 100 nM) | relative cell number (SKBR3; 1000 nM) | relative cell number (SKBR3; 10000 nM) | relative cell number (MDA-MB-231; 10 nM) | relative cell number (MDA-MB-231; 100 nM) | relative cell number (MDA-MB-231; 1000 nM) | relative cell number (MDA-MB-231; 10000 nM)
1 | Cc1cc(N2CCOCC2)cc2[nH]c(-c3c(NC[C@@H](O)c4cccc(Cl)c4)cc[nH]c3=O)nc12 | 78.8 ± 51 | 53.3 ± 10 | 84.2 ± 8.8 | 13.7 ± 10 | 94.97 ± 0.84 | 89.4 ± 24 | 93.6 ± 7.3 | 30.7 ± 3.4 | 70.9 ± 10 | 88.3 ± 11 | 94 ± 14 | 67.4 ± 17 | 107 ± 3.5 | 73 ± 16 | 60 ± 15 | 60.3 ± 12 | 85.2 ± 7.6 | 76.6 ± 42 | 77.5 ± 2.4 | 15 ± 2.3
2 | Cc1ccc(C(=O)N(CCCN)[C@@H](c2oc3cc(Cl)ccc3c(=O)c2Cc2ccccc2)C(C)C)cc1 | 26.5 ± 2.3 | 21.8 ± 0.36 | 27.9 ± 5.1 | 3 ± 1.2 | 24 ± 0.85 | 27.8 ± 8.2 | 28.9 ± 4.7 | 5.58 ± 0.82 | 29.6 ± 8.5 | 27.7 ± 4.7 | 33.7 ± 11 | 5.17 ± 2.2 | 15.6 ± 15 | 11.3 ± 1.2 | 15.3 ± 5.2 | 5.26 ± 4.4 | 23 ± 9 | 16.8 ± 5.6 | 17.2 ± 11 | 4.71 ± 1.3
3 | Cc1ccc(S(=O)(=O)OCC(=O)Nc2ccc(C(=O)O)c(O)c2)cc1 | 91.2 ± 35 | 68.9 ± 12 | 99.1 ± 36 | 103 ± 8.6 | 119 ± 7.6 | 102 ± 1.3 | 91.8 ± 5.4 | 89.6 ± 9.3 | 101 ± 26 | 115 ± 40 | 108 ± 17 | 95.6 ± 33 | 83.3 ± 40 | 77.3 ± 3.9 | 93.7 ± 14 | 116 ± 58 | 128 ± 26 | 61.9 ± 5.4 | 117 ± 20 | 86.1 ± 20
4 | Cc1ccccc1-n1c(Cn2cnc3c(N)ncnc32)nc2cccc(C)c2c1=O | 112 ± 23 | 98.5 ± 40 | 71.4 ± 14 | 105 ± 6 | 97.9 ± 27 | 104 ± 18 | 102 ± 12 | 95.6 ± 8.2 | 110 ± 2.1 | 133 ± 22 | 102 ± 15 | 113 ± 5.9 | 104 ± 11 | 107 ± 12 | 101.8 ± 0.55 | 93.3 ± 7.2 | 123 ± 7.7 | 128 ± 20 | 101 ± 9 | 153 ± 48
5 | Cc1cnc(-c2cnc(NCCNc3ccc(C#N)cn3)nc2-c2ccc(Cl)cc2Cl)[nH]1 | 104 ± 21 | 85.3 ± 13 | 66.2 ± 15 | 77.1 ± 10 | 98.4 ± 21 | 89.08 ± 0.19 | 104 ± 2.4 | 126.9 ± 0.6 | 110 ± 4.5 | 103 ± 19 | 73.6 ± 3.6 | 106 ± 22 | 99.6 ± 12 | 91.2 ± 2.6 | 73.7 ± 18 | 85.9 ± 40 | 88.2 ± 11 | 92.2 ± 8.4 | 79.9 ± 25 | 72.7 ± 21
6 | Cc1cnc(Nc2ccc(OCCN3CCCC3)cc2)nc1Nc1cccc(S(=O)(=O)NC(C)(C)C)c1 | 105 ± 22 | 108 ± 2.4 | 71.3 ± 26 | 10.8 ± 5.8 | 99.1 ± 2.6 | 90.301 ± 0.055 | 68.7 ± 8.1 | 11.7 ± 2.2 | 99.9 ± 19 | 92.6 ± 1.8 | 81.3 ± 12 | 42.5 ± 4.4 | 89 ± 48 | 68.7 ± 15 | 75.4 ± 15 | 16.9 ± 0.89 | 88.9 ± 26 | 116 ± 5.9 | 64.9 ± 6.9 | 5.85 ± 0.9
7 | Cc1nc(Nc2n[nH]c3c2CN(C(=O)N[C@H](CN(C)C)c2ccccc2)C3(C)C)c2sccc2n1 | 40.4 ± 14 | 49.8 ± 19 | 25.6 ± 4.3 | 3.38 ± 1.2 | 64.9 ± 5 | 54.5 ± 3.9 | 31.5 ± 1.2 | 13.5 ± 5.3 | 77.3 ± 21 | 46 ± 2.4 | 31.8 ± 6.6 | 11.6 ± 6.4 | 60.9 ± 22 | 52.5 ± 9 | 21.3 ± 0.55 | 3.5 ± 2.2 | 35.5 ± 11 | 27.3 ± 6.1 | 13.4 ± 6.6 | 4.59 ± 3.4
8 | N#Cc1ccc(COC[C@H]2O[C@@H](n3c(NCc4ccc(Cl)c(Cl)c4)nc4c(N)ncnc43)[C@H](O)[C@@H]2O)cc1 | 105 ± 48 | 90.5 ± 13 | 64.7 ± 41 | 39.1 ± 0.67 | 90.8 ± 12 | 99.2 ± 8.1 | 99.1 ± 19 | 93.9 ± 15 | 108 ± 25 | 92.7 ± 6.8 | 91.1 ± 26 | 73.2 ± 18 | 105 ± 14 | 139 ± 29 | 106 ± 24 | 60.1 ± 4.3 | 83.77 ± 0.66 | 98.3 ± 7 | 115 ± 28 | 28.9 ± 0.7
9 | O=C(NOCC(O)CO)c1cc(Br)c(F)c(F)c1Nc1ccc(I)cc1F (stereo not given) | 83.5 ± 48 | 76.9 ± 7.1 | 71.2 ± 4.6 | 56.5 ± 2.3 | 85.4 ± 6.8 | 83.2 ± 6.4 | 81.8 ± 3.8 | 86.2 ± 8.4 | 86.8 ± 14 | 86.9 ± 14 | 94.1 ± 9.3 | 83.5 ± 7.2 | 118 ± 48 | 123 ± 58 | 112 ± 36 | 83.5 ± 34 | 105 ± 17 | 75.8 ± 19 | 56.5 ± 25 | 47.5 ± 17
10 | O=C1NC(=O)/C(=C/c2ccc3nccc(-c4ccncc4)c3c2)S1 | 78.3 ± 2.5 | 128 ± 6.6 | 99 ± 38 | 38.6 ± 7.8 | 95.7 ± 5 | 85.8 ± 11 | 87.5 ± 1.1 | 42.38 ± 0.22 | 92.4 ± 28 | 81.1 ± 9.8 | 62.2 ± 16 | 46.5 ± 18 | 112 ± 35 | 123 ± 53 | 90.9 ± 9.8 | 34.7 ± 6.4 | 79.8 ± 14 | 87.5 ± 0.95 | 96 ± 18 | 54.1 ± 2.6
11 | O=c1cc(-c2cccc3c2Sc2ccccc2S3)oc(N2CCOCC2)c1 | 81.3 ± 28 | 98.8 ± 25 | 75.5 ± 26 | 58.3 ± 15 | 91.6 ± 7.9 | 79.2 ± 1.7 | 88.4 ± 18 | 82.7 ± 9.9 | 76.9 ± 1.4 | 116 ± 4.1 | 110.8 ± 0.94 | 109 ± 22 | 85.1 ± 17 | 94.4 ± 12 | 115 ± 17 | 54.3 ± 6.1 | 119 ± 4.4 | 77.3 ± 7.3 | 89.5 ± 12 | 46.8 ± 19
12 | OCc1ccc(-c2ccc(-c3ccc(CO)s3)o2)s1 | 59.9 ± 6 | 9.97 ± 1.1 | 10.6 ± 4.2 | 4.09 ± 1.8 | 118 ± 10 | 119 ± 4.3 | 110 ± 18 | 63.6 ± 18 | 110 ± 32 | 77.9 ± 13 | 24.9 ± 1.5 | 12.3 ± 6.7 | 84.8 ± 34 | 15.6 ± 0.84 | 10.9 ± 4.8 | 5.65 ± 0.36 | 117 ± 27 | 118 ± 5.9 | 102 ± 7.9 | 40 ± 2.9
13 | CC/C(=C(\c1ccc(O)cc1)c1ccc(OCCN(C)C)cc1)c1ccccc1 [4-Hydroxytamoxifen] | 95.8 ± 9.6 | 61.5 ± 4.8 | 70.2 ± 15 | 34.6 ± 8.6 | 94.8 ± 10 | 93.2 ± 5.7 | 90.4 ± 20 | 81.5 ± 14 | 96.8 ± 8.9 | 88.3 ± 28 | 106 ± 10 | 74.5 ± 21 | 104 ± 19 | 100 ± 45 | 80 ± 2.2 | 40.6 ± 10 | 95.8 ± 17 | 88.2 ± 7.9 | 100 ± 3.5 | 96.2 ± 9
